Assay results: patent US20220402984A1, “LYSIN-ANTIMICROBIAL PEPTIDE (AMP) POLYPEPTIDE CONSTRUCTS, LYSINS, ISOLATED POLYNUCLEOTIDES ENCODING SAME AND USES THEREOF” (priority 2018, published 2022)
Read-outs that look alike come from different tables or passages of the source.

Assays:
[1] = system: carbapenem-resistant P. aeruginosa strains; type: cell-based, Pseudomonas aeruginosa
Procedure: Such resensitization may be determined by combining the present lysins or lysin-AMP polypeptide constructs with an antibiotic in a checkerboard assay as described herein. Antibiotic-resistant bacteria, such as carbapenem-resistant P. aeruginosa, are added to the lysin or lysin-AMP polypeptide construct combination. […] See Clinical and Laboratory Standards Institute (CLSI), CLSI. […] M100 Performance Standards for Antimicrobial Susceptibility Testing; 29th Edition. Clinical and Laboratory Standards Institute, Wayne, Pa., which is herein incorporated by reference in its entirety.
Up to seven carbapenem-resistant isolates were assessed. […] See Clinical and Laboratory Standards Institute (CLSI), CLSI. […] M100 Performance Standards for Antimicrobial Susceptibility Testing; 29th Edition. Clinical and Laboratory Standards Institute, Wayne, Pa.

[2] = system: P. aeruginosa (strain WC-452); experiment: 21-day serial passage resistance assay; type: cell-based, Pseudomonas aeruginosa; conditions: over 18 days
Procedure: […]. An analysis of bacterial resistance was performed using P. aeruginosa (strain WC-452) over 21 days of serial passage in the presence of a GN-lysin dilution series (in duplicate). […] The well with the highest concentration of GN lysin in which bacterial growth was seen was then used as the inoculum for the next day's passage, and the process was repeated over a 21 day period. The MIC at each daily time-point was recorded, and resistance was measured as a step-wise increase in MIC.

[3] = system: P. aeruginosa isolate CFS 1558 (PA20); experiment: Rabbit pulmonary model establishment: inoculum and meropenem static dose; type: in vivo; conditions: for Bacterial Burden, Kidneys / Bacterial Burden, Lung 1 / Bacterial Burden, Lung 2 / Bacterial Burden, Spleen: sacrificed 18-24 hours after last dose
Description: 3×10^9 CFU of the P. aeruginosa isolate was used to challenge the rabbits during the efficacy study described below.

Staphylococcus aureus = experiment: Daptomycin MIC in […] (positive control); type: cell-based; conditions: S. aureus
Procedure: As a positive control, the impact of […] ® on daptomycin (DAP) activity against Staphylococcus aureus was also tested.

[4] = Meropenem 10 mg/kg, three times a day subcutaneous for two days
[5] = Meropenem 20 mg/kg, three times a day subcutaneous for two days
[6] = Meropenem 30 mg/kg, three times a day subcutaneous for two days
[7] = Meropenem 40 mg/kg, three times a day subcutaneous for two days

C[C@@H](O)[C@H]1C(=O)N2C(C(=O)O)=C(SCCN=CN)C[C@H]12 [Imipenem, imipenem]
Antibiotic MIC Alone ([1]; IPM + GN351 vs. WC-452): 16 (R)
Antibiotic MIC Alone ([1]; IPM + GN370 vs. WC-452): 16 (R)
Antibiotic MIC Alone ([1]; IPM + GN428 vs. WC-452): 16 (R)

O=C(O)c1cn(C2CC2)c2cc(N3CCNCC3)c(F)cc2c1=O [Ciprofloxacin]
increase in MIC during serial passage [2]: 16 fold

C[C@@H](O)[C@H]1C(=O)N2C(C(=O)O)=C(S[C@@H]3CN[C@H](C(=O)N(C)C)C3)[C@H](C)[C@H]12 [Meropenem, meropenem]
Antibiotic MIC Alone ([1]; MEM + GN351 vs. WC-452): 16 (R)
Antibiotic MIC Alone ([1]; MEM + GN370 vs. WC-452): 16 (R)
Antibiotic MIC Alone ([1]; MEM + GN428 vs. WC-452): 16 (R)
Bacterial Burden, Kidneys [3, 4]: 4.36 ± 0.43 log10 CFU/g
Bacterial Burden, Lung 1 [3, 4]: 7.39 ± 0.34 log10 CFU/g
Bacterial Burden, Lung 2 [3, 4]: 7.42 ± 0.64 log10 CFU/g
Bacterial Burden, Spleen [3, 4]: 4.01 ± 0.10 log10 CFU/g
Bacterial Burden, Kidneys [3, 5]: 4.51 ± 0.73 log10 CFU/g
Bacterial Burden, Lung 1 [3, 5]: 6.85 ± 1.09 log10 CFU/g
Bacterial Burden, Lung 2 [3, 5]: 6.97 ± 1.19 log10 CFU/g
Bacterial Burden, Spleen [3, 5]: 4.74 ± 0.57 log10 CFU/g
Bacterial Burden, Kidneys ([3]; Meropenem 25 mg/kg): 2.06 ± 0.58 log10 CFU/g
Bacterial Burden, Lung 1 ([3]; Meropenem 25 mg/kg): 4.55 ± 1.65 log10 CFU/g
Bacterial Burden, Lung 2 ([3]; Meropenem 25 mg/kg): 3.73 ± 1.03 log10 CFU/g
Bacterial Burden, Spleen ([3]; Meropenem 25 mg/kg): 2.15 ± 0.78 log10 CFU/g
Bacterial Burden, Kidneys [3, 6]: 2.24 ± 0.64 log10 CFU/g
Bacterial Burden, Lung 1 [3, 6]: 4.83 ± 1.19 log10 CFU/g
Bacterial Burden, Lung 2 [3, 6]: 4.42 ± 1.14 log10 CFU/g
Bacterial Burden, Spleen [3, 6]: 1.97 ± 0.63 log10 CFU/g
Bacterial Burden, Kidneys [3, 7]: 2.34 ± 0.65 log10 CFU/g
Bacterial Burden, Lung 1 [3, 7]: 4.66 ± 0.11 log10 CFU/g
Bacterial Burden, Lung 2 [3, 7]: 2.95 ± 1.19 log10 CFU/g
Bacterial Burden, Spleen [3, 7]: 1.93 ± 0.47 log10 CFU/g
meropenem dosage establishing a static effect ([3]; three times a day, subcutaneous, two days, rabbits): 20 mg/kg

daptomycin
fold increase in MIC (Staphylococcus aureus; 0.09% SURVANTA): 32
fold increase in MIC (Staphylococcus aureus; 0.19% SURVANTA): 32
fold increase in MIC (Staphylococcus aureus; 1.56% SURVANTA): 128
fold increase in MIC (Staphylococcus aureus; 3.15% SURVANTA): 128
